Assay results published in patent US20230257383A1, “COMPOUND SERVING AS BTK INHIBITOR, PREPARATION METHOD THEREFOR, AND USE THEREOF” (CHENGDU HYPERWAY PHARMACEUTICALS CO., LTD., priority 2020, published 2023).
pIC50: −log10 of the molar value. One block for each molecule: values may come before it.

Assays:
[1] = tested on: TMD8 mouse subcutaneous xenograft tumor; experiment: TMD8 pharmacodynamic model test; format: in vivo; details: same dose of 20 mg/kg, FIG. 2
Description: Test Example 7: TNMD8 Pharmacodynamic Model Test
Human diffuse large B-cell lymphoma TMD8 cells were monolayer-cultured in vitro in RPNHI1640 medium with […], 100 U/mL penicillin and 100 μg/mL streptomycin, in a 37° C., […] incubator. Routine digestion with trypsin-EDTA was performed twice a week for passaging. When the cell density was […] and the number reached the requirement, cells were harvested, counted and inoculated. 0.2 ml (1×10^7 cells) of TMVD8 cells (added with matrigel at a volume ratio of 1:1) were subcutaneously inoculated on the right back of each mouse. The mice were administered in groups when the average tumor volume reached about 137 mm^3. Tumor diameters were measured twice a week with vernier calipers. The tumor volume was calculated by the formula V=0.5 a×b^2, where a and b represent the long and short diameters of the tumor, respectively.

[2] = tested on: DOHH-2-luc tumor cells in the mouse brain; experiment: DOHH-2-Luc intracerebral tumor drug efficacy model test; format: in vivo; details: for inhibitory effect against the tumor compared with Tirabrutinib: DOHH2 tumor model in the mouse brain, same dose of 30 mg/kg (BID), FIG. 3; for fluorescence image of brain tumor (red area = tumor size): DOHH-2-Luc intracerebral model, same dose, FIG. 4; for side effects: mouse, 30 mg/kg (BID), after 21 days of administration
Description: Test Example 8: DOHH-2-Luc Intracerebral Tumor Drug Efficacy Model Test
DOHH-2-luc tumor cells were cultured in vitro with RPMI 1640 medium containing 10% fetal bovine serum and 500 ng/mL puromycin in a 37° C., 5% CO2 incubator. […] Tumor cells in logarithmic growth phase were used for inoculation of tumors in vivo.
2. Inoculation of Tumor Cell and Grouping
After the animal was anesthetized by intramuscular injection of Zoletil, it was fixed on the operating table in a prone position. The skin on the top of the head was disinfected with iodine and 75% alcohol respectively, and the skin was cut about 0.5 cm along the midline of the head to expose the coronal and sagittal lines. Being located about 0.5-1.0 mm above the coronal line and about 2 mm to the right of the sagittal line by using a brain locator, a hole was drilled with a 1 mL syringe needle. The micro-injector was inserted vertically to a depth of 3 mm at the location, slowly (about 1 min) injected with 3×10^5 DOHH-2-luc tumor cells/2 μL suspension and kept for 1 min. After pulling out the needle, the needle hole was quickly sealed with bone wax, and the wound was sutured with a stapler. About the 7th day after tumor inoculation, the animals were randomly divided into 5 groups according to the body weight of the animals and the optical signal intensity of the tumor site, with 5 animals in each group.
The mice were imaged 1-2 times a week according to their state using the small animal in vivo imaging system IVIS Lumina III (Perkin Elmer). The bioluminescence imaging (BLI, unit: photons/s) signal intensity at the tumor cell inoculation site of mouse was monitored as the main indicator for evaluating tumor growth and drug efficacy. The specific operation is as follows:
The mice were intraperitoneally injected with D-luciferin (15 mg/mL, 5 μL/g according to the body weight of the experimental animal), and then inhaled anesthetized with 1%-2% isoflurane. 10 min after the injection of D-luciferin, the animals were imaged with IVIS Lumina III. The data were analyzed and processed using Living Image software (Perkin Elmer), and the optical signal intensity in ROI (regions of interest) of each animal was calculated.

[3] = biological target: HER2 kinase (Homo sapiens, UniProt P04626); experiment: HER2 kinase activity test (HTRF); format: biochemical
Chain of HER2 kinase (P04626 23-1255): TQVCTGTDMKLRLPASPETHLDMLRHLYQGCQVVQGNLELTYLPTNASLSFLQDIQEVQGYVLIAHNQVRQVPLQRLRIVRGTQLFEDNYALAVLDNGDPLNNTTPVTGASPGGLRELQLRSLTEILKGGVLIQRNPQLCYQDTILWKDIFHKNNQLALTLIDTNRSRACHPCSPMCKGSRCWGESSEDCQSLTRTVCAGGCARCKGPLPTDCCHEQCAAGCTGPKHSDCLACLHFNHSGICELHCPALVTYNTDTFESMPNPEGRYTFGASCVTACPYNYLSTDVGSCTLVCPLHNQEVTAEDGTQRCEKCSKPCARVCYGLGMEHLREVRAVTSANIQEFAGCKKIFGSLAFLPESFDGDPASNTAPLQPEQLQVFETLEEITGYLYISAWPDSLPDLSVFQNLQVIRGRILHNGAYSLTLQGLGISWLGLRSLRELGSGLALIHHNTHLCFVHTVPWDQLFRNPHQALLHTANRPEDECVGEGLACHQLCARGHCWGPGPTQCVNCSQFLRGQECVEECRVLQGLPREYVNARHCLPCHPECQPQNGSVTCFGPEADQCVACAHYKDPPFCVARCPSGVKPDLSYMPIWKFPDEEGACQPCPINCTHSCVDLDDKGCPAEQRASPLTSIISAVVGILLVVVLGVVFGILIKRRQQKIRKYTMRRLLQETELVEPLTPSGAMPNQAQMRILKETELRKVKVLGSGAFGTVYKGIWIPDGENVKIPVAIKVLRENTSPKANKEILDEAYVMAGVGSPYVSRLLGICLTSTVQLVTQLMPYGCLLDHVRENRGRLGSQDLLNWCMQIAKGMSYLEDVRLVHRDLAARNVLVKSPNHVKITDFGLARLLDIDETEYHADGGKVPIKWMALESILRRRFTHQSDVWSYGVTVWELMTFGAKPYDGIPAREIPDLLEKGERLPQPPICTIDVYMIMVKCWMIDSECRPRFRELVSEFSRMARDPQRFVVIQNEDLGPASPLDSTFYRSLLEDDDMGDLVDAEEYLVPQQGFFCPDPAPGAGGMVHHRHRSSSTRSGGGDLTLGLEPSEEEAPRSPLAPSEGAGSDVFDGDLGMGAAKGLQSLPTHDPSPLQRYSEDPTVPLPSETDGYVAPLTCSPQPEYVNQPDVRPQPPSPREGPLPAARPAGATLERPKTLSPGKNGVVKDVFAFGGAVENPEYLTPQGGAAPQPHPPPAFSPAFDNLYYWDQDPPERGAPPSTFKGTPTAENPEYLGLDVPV
Description: Test Example 5: HER2 Kinase Activity Test
1. Her2 Kinase test steps
2) 100 nl of the diluted compound working solution was transferred into each well of a reaction plate (784075, Greiner) by an Echo 550 liquid hander. The reaction plate was sealed with a sealing film and centrifuged at 1000 g for 1 min.
3) 1 ng/μL Her2 kinase solution was prepared with 1× kinase reaction buffer.
4) 5 μL of the kinase solution prepared above was added to each well of the reaction plate. The plate was sealed with a sealing film, centrifuged at 1000 g for 1 min, and placed at room temperature for 10 min.
5) A mixture of 2× kinase substrate and ATP was prepared by using 1× kinase reaction buffer, and the 2× Her2 kinase substrate was 2 μM TK-substrate-biotin and 4 μM ATP
6) 5 μL of the mixture of 2× TK-substrate-biotin and ATP was added to the reaction plate, centrifuged at 1000 g for 30 seconds to start the reaction.
7) Her2 kinase test was performed at room temperature for 50 min of reaction.
9) 10 μL of the mixture of Sa-XL 665 and TK-antibody-Cryptate was added to each well, centrifuged at 1000 g for 30 seconds, and reacted at room temperature for 1 h.
10) The fluorescence signals at 615 nm (Cryptate) and 665 nm (XL665) were read by Envision 2104.
1) The percentage inhibition was calculated as follows: […]
Ratiopositive control: average value of Ratio 665/615 nm of all positive control wells in the plate.
Rationegative control: average value of Ratio 665/615 nm of all negative control wells in the plate.
2) Calculation of IC50 and fitting of dose-effect curve of compound:
The IC50 of the compound was derived using the following nonlinear fitting formula with GraphPad 6.0.
Y=Bottom+(Top−Bottom)/(1+10^((Log IC50−X)×HillSlope)).
X: log value of compound concentration; Y: percentage inhibition of compound

Structure (SMILES): Nc1nccn2c(C3CCC(CO)OC3)nc(-c3ccc(C(F)(F)c4ccccc4)cc3)c12 (single isomer, unassigned) [Example 111-P1]
- inhibitory effect against the tumor compared with Tirabrutinib [1]: significantly better inhibitory effect against the tumor than Tirabrutinib
- inhibitory effect against the tumor compared with Tirabrutinib [2]: significantly better inhibitory effect against the tumor than Tirabrutinib
- fluorescence image of brain tumor (red area = tumor size) [2]: very good inhibitory effect against the tumor, with almost no red area
- side effects [2]: no side effects had been found

Structure (SMILES): Nc1nccn2c(C34CCC(CO)(CC3)OC4)nc(-c3ccc(C(F)(F)c4ccccc4)cc3)c12 [Example 125]
- inhibitory effect against the tumor compared with Tirabrutinib [1]: significantly better inhibitory effect against the tumor than Tirabrutinib
- inhibitory effect against the tumor compared with Tirabrutinib [2]: significantly better inhibitory effect against the tumor than Tirabrutinib
- fluorescence image of brain tumor (red area = tumor size) [2]: very good inhibitory effect against the tumor, with almost no red area
- side effects [2]: no side effects had been found

- pIC50 [3]: 8.77
Structure (SMILES): Nc1nccn2c(C34CCC(CO)(CC3)OC4)nc(-c3ccc(C(F)(F)c4ccccc4F)cc3)c12 [Example 145]

Structure (SMILES): Nc1nccn2c(C34CCC(CO)(CC3)OC4)nc(-c3ccc(C(F)(F)c4cccc(Cl)c4F)cc3)c12 [Example 152]
- pIC50 [3]: 8.38

Structure (SMILES): Nc1nccn2c(C34CCC(CO)(CC3)OC4)nc(-c3ccc(C(F)(F)c4ccccc4Cl)cc3)c12 [Example 155]
- pIC50 [3]: 8.03

Structure (SMILES): Cc1cc(Nc2ncnc3ccc(NC4=NC(C)(C)CO4)cc23)ccc1Oc1ccn2ncnc2c1 [Tucatinib, reference compound]
- pIC50 [3]: 8.52
